Legend:
[1] = Drug uptake in brain of mouse xenografted with human NCI-H2122 cells at 50 mg/kg, ip after 3 hrs by LC-MS/MS analysis; format: ADME, organism-based; details: read-out: Drug uptake
[2] = Drug uptake in kidney of mouse xenografted with human NCI-H2122 cells at 50 mg/kg, ip after 3 hrs by LC-MS/MS analysis; format: ADME, organism-based; details: read-out: Drug uptake
[3] = Drug uptake in liver of mouse xenografted with human NCI-H2122 cells at 50 mg/kg, ip after 3 hrs by LC-MS/MS analysis; format: ADME, organism-based; details: read-out: Drug uptake
[4] = Drug uptake in lungs of mouse xenografted with human NCI-H2122 cells at 50 mg/kg, ip after 3 hrs by LC-MS/MS analysis; format: ADME, organism-based; details: lung, read-out: Drug uptake
[5] = Drug uptake in tumor of mouse xenografted with human NCI-H2122 cells at 50 mg/kg, ip after 3 hrs by LC-MS/MS analysis; format: ADME, organism-based, Neoplasm; details: read-out: Drug uptake
[6] = Drug metabolism in CD1 mouse liver microsomes assessed as CYP450-mediated mono-oxidation by measuring 6-amino-4-(2,5-dihydroxyphenyl)-3-(naphthalen-2-yl)-1,4-dihydropyrano[2,3-c]pyrazole-5-carbonitrile metabolite formation at 16.7 uM after 10 mins in presence of NADPH by LC-MS/MS analysis; format: ADME
[7] = Drug metabolism in CD1 mouse liver microsomes assessed as CYP450-mediated mono-oxidation by measuring M1 metabolite formation at 16.7 uM after 10 mins in presence of NADPH by LC-MS/MS analysis; format: ADME
[8] = Drug metabolism in CD1 mouse liver microsomes assessed as CYP450-mediated mono-oxidation by measuring M3 metabolite formation at 16.7 uM after 10 mins in presence of NADPH by LC-MS/MS analysis; format: ADME
[9] = Drug metabolism in CD1 mouse liver microsomes assessed as CYP450-mediated mono-oxidation by measuring M5 metabolite formation at 16.7 uM after 10 mins in presence of NADPH by LC-MS/MS analysis; format: ADME
[10] = Drug metabolism in CD1 mouse liver microsomes assessed as CYP450-mediated demethylation by measuring M4 metabolite formation at 16.7 uM after 10 mins in presence of NADPH by LC-MS/MS analysis; format: ADME
[11] = Drug metabolism in mouse xenografted with human NCI-H2122 cells assessed as M1 metabolite formation in plasma at 50 mg/kg, ip after 3 hrs by LC-MS/MS analysis; format: ADME, organism-based; details: in vivo
[12] = Drug metabolism in mouse xenografted with human NCI-H2122 cells assessed as M1 metabolite formation in liver at 50 mg/kg, ip after 3 hrs by LC-MS/MS analysis; format: ADME, organism-based; details: in vivo
[13] = Drug metabolism in mouse xenografted with human NCI-H2122 cells assessed as M1 metabolite formation in lungs at 50 mg/kg, ip after 3 hrs by LC-MS/MS analysis; format: ADME, organism-based, Lung; details: in vivo
[14] = Drug metabolism in mouse xenografted with human NCI-H2122 cells assessed as 6-amino-4-(2,5-dihydroxyphenyl)-3-(naphthalen-2-yl)-1,4-dihydropyrano[2,3-c]pyrazole-5-carbonitrile metabolite formation in plasma at 50 mg/kg, ip after 3 hrs by LC-MS/MS analysis; format: ADME, organism-based; details: in vivo
[15] = Drug metabolism in mouse xenografted with human NCI-H2122 cells assessed as 6-amino-4-(2,5-dihydroxyphenyl)-3-(naphthalen-2-yl)-1,4-dihydropyrano[2,3-c]pyrazole-5-carbonitrile metabolite formation in kidney at 50 mg/kg, ip after 3 hrs by LC-MS/MS analysis; format: ADME, organism-based; details: in vivo
[16] = Drug metabolism in mouse xenografted with human NCI-H2122 cells assessed as 6-amino-4-(2,5-dihydroxyphenyl)-3-(naphthalen-2-yl)-1,4-dihydropyrano[2,3-c]pyrazole-5-carbonitrile metabolite formation in lungs at 50 mg/kg, ip after 3 hrs by LC-MS/MS analysis; format: ADME, organism-based, Lung; details: in vivo
[17] = Drug metabolism in mouse xenografted with human NCI-H2122 cells assessed as 6-amino-4-(2,5-dihydroxyphenyl)-3-(naphthalen-2-yl)-1,4-dihydropyrano[2,3-c]pyrazole-5-carbonitrile metabolite formation in heart at 50 mg/kg, ip after 3 hrs by LC-MS/MS analysis; format: ADME, organism-based; details: in vivo, BLD = below limit of detection
[18] = Drug metabolism in mouse xenografted with human NCI-H2122 cells assessed as M3 metabolite formation in plasma at 50 mg/kg, ip after 3 hrs by LC-MS/MS analysis; format: ADME, organism-based; details: in vivo
[19] = Drug metabolism in mouse xenografted with human NCI-H2122 cells assessed as M3 metabolite formation in tumor at 50 mg/kg, ip after 3 hrs by LC-MS/MS analysis; format: ADME, organism-based, Neoplasm; details: in vivo
[20] = Drug metabolism in mouse xenografted with human NCI-H2122 cells assessed as M3 metabolite formation in liver at 50 mg/kg, ip after 3 hrs by LC-MS/MS analysis; format: ADME, organism-based; details: in vivo
[21] = Drug metabolism in mouse xenografted with human NCI-H2122 cells assessed as M3 metabolite formation in lungs at 50 mg/kg, ip after 3 hrs by LC-MS/MS analysis; format: ADME, organism-based, Lung; details: in vivo
[22] = Drug metabolism in mouse xenografted with human NCI-H2122 cells assessed as M3 metabolite formation in heart at 50 mg/kg, ip after 3 hrs by LC-MS/MS analysis; format: ADME, organism-based; details: in vivo
[23] = Drug metabolism in mouse xenografted with human NCI-H2122 cells assessed as M4 metabolite formation in plasma at 50 mg/kg, ip after 3 hrs by LC-MS/MS analysis; format: ADME, organism-based; details: in vivo
[24] = Drug metabolism in mouse xenografted with human NCI-H2122 cells assessed as M4 metabolite formation in tumor at 50 mg/kg, ip after 3 hrs by LC-MS/MS analysis; format: ADME, organism-based, Neoplasm; details: in vivo
[25] = Drug metabolism in mouse xenografted with human NCI-H2122 cells assessed as M4 metabolite formation in liver at 50 mg/kg, ip after 3 hrs by LC-MS/MS analysis; format: ADME, organism-based; details: in vivo
[26] = Drug metabolism in mouse xenografted with human NCI-H2122 cells assessed as M4 metabolite formation in lungs at 50 mg/kg, ip after 3 hrs by LC-MS/MS analysis; format: ADME, organism-based, Lung; details: in vivo
[27] = Drug metabolism in mouse xenografted with human NCI-H2122 cells assessed as M5 metabolite formation in plasma at 50 mg/kg, ip after 3 hrs by LC-MS/MS analysis; format: ADME, organism-based; details: in vivo
[28] = Drug metabolism in mouse xenografted with human NCI-H2122 cells assessed as M5 metabolite formation in tumor at 50 mg/kg, ip after 3 hrs by LC-MS/MS analysis; format: ADME, organism-based, Neoplasm; details: in vivo
[29] = Drug metabolism in mouse xenografted with human NCI-H2122 cells assessed as M5 metabolite formation in kidney at 50 mg/kg, ip after 3 hrs by LC-MS/MS analysis; format: ADME, organism-based; details: in vivo
[30] = Drug metabolism in mouse xenografted with human NCI-H2122 cells assessed as M5 metabolite formation in liver at 50 mg/kg, ip after 3 hrs by LC-MS/MS analysis; format: ADME, organism-based; details: in vivo
[31] = Drug metabolism in mouse xenografted with human NCI-H2122 cells assessed as M5 metabolite formation in lungs at 50 mg/kg, ip after 3 hrs by LC-MS/MS analysis; format: ADME, organism-based, Lung; details: in vivo
[32] = Drug metabolism in mouse xenografted with human NCI-H2122 cells assessed as M5 metabolite formation in heart at 50 mg/kg, ip after 3 hrs by LC-MS/MS analysis; format: ADME, organism-based; details: in vivo

Structure (SMILES): COc1ccc(OC)c(C2C(C#N)=C(N)Oc3[nH]nc(-c4ccc5ccccc5c4)c32)c1 (configuration not stated)
- concentration at 3 h [1]: 570 ng/g
- concentration at 3 h [2]: 24600 ng/g
- concentration at 3 h [3]: 39700 ng/g
- concentration at 3 h [4]: 21600 ng/g
- concentration at 3 h [5]: 5830 ng/g
- Drug metabolism [6]: Metabolite_Detected
- Drug metabolism [7]: Metabolite_Detected
- Drug metabolism [8]: Metabolite_Detected
- Drug metabolism [9]: Metabolite_Detected
- Drug metabolism [10]: Metabolite_Detected
- Drug metabolism [11]: 7.7 ng/mL
- Drug metabolism [12]: 557.4 ng/g
- Drug metabolism [13]: 18.2 ng/g
- Drug metabolism [14]: 8.4 ng/mL
- Drug metabolism [15]: 3.7 ng/g
- Drug metabolism [16]: 1.1 ng/g
- Drug metabolism [17]: Bld
- Drug metabolism [18]: 14.2 ng/mL
- Drug metabolism [19]: 0.7 ng/g
- Drug metabolism [20]: 49.6 ng/g
- Drug metabolism [21]: 2 ng/g
- Drug metabolism [22]: 1.1 ng/g
- Drug metabolism [23]: 37.8 ng/mL
- Drug metabolism [24]: 10.2 ng/g
- Drug metabolism [25]: 1391.3 ng/g
- Drug metabolism [26]: 46.8 ng/g
- Drug metabolism [27]: 2.7 ng/mL
- Drug metabolism [28]: 1.4 ng/g
- Drug metabolism [29]: 20.9 ng/g
- Drug metabolism [30]: 72.6 ng/g
- Drug metabolism [31]: 11.5 ng/g
- Drug metabolism [32]: 5.5 ng/g
